How the values were obtained:
healthy subjects = assay: Pharmacodynamics; type: in vivo, human; settings: MAD, dulaglutide 1.5 mg/wk, LSM
[1] = Clinical pharmacokinetics, SAD part; type: in vivo; settings: human; for AUC(0-inf) / CL/F / Cmax / Tmax / Vd/F / half-life: plasma, sc
[2] = Clinical pharmacokinetics, MAD part; type: in vivo; settings: human, SC once weekly
patients with T2DM = assay: Adverse events, Phase 1b POC part; type: in vivo, human; settings: for Any TEAE: T2DM patients
[3] = test system: healthy subjects and patients with T2DM; assay: Other safety laboratory parameters; type: in vivo, human
[4] = Immunogenicity, anti-drug antibody; type: in vivo, human; settings: whole study
[5] = test system: healthy subjects and patients with T2DM; assay: ECG analysis; type: in vivo, human

Compound: Dulaglutide: selective GLP-1 receptor agonist, positive control, 1.5 mg/0.5 mL single-use pen
- Body Weight Change from Baseline, Day 29 (healthy subjects): -1.3 kg

Compound: CC[C@H](C)[C@H](NC(=O)[C@H](CC(C)C)NC(=O)[C@H](Cc1c[nH]c2ccccc12)NC(=O)[C@H](CCC(N)=O)NC(=O)[C@@H](NC(=O)[C@H](Cc1ccccc1)NC(=O)[C@H](C)NC(=O)[C@H](CCCCNC(=O)COCCOCCNC(=O)COCCOCCNC(=O)CC[C@H](NC(=O)CCCCCCCCCCCCCCCCCCC(=O)O)C(=O)O)NC(=O)[C@H](CCC(N)=O)NC(=O)[C@H](C)NC(=O)[C@@H](NC(=O)[C@H](CCCCN)NC(=O)[C@H](CC(=O)O)NC(=O)[C@H](CC(C)C)NC(=O)C(C)(C)NC(=O)[C@@H](NC(=O)[C@H](CO)NC(=O)[C@H](Cc1ccc(O)cc1)NC(=O)[C@H](CC(=O)O)NC(=O)[C@H](CO)NC(=O)[C@@H](NC(=O)[C@H](Cc1ccccc1)NC(=O)[C@@H](NC(=O)CNC(=O)[C@H](CCC(=O)O)NC(=O)C(C)(C)NC(=O)[C@@H](N)Cc1ccc(O)cc1)[C@@H](C)O)[C@@H](C)O)[C@@H](C)CC)[C@@H](C)CC)C(C)C)C(=O)N[C@@H](C)C(=O)NCC(=O)NCC(=O)N1CCC[C@H]1C(=O)N[C@@H](CO)C(=O)N[C@@H](CO)C(=O)NCC(=O)N[C@@H](C)C(=O)N1CCC[C@H]1C(=O)N1CCC[C@H]1C(=O)N1CCC[C@H]1C(=O)N[C@@H](CO)C(N)=O [LY3298176]
- time of maximum concentration after dosing ([1]; SC, over the doses studied): 24 to 48 h
- AUC(0-inf) ([1]; 0.25 mg): 5760 ng·h/mL
- CL/F ([1]; 0.25 mg): 0.723 mL/min
- Cmax ([1]; 0.25 mg): 26 ng/mL
- Tmax ([1]; 0.25 mg): 48 h
- Vd/F ([1]; 0.25 mg): 7.26 L
- half-life ([1]; 0.25 mg): 116 h
- AUC(0-inf) ([1]; 0.5 mg): 12000 ng·h/mL
- CL/F ([1]; 0.5 mg): 0.693 mL/min
- Cmax ([1]; 0.5 mg): 57.7 ng/mL
- Tmax ([1]; 0.5 mg): 48 h
- Vd/F ([1]; 0.5 mg): 7.46 L
- half-life ([1]; 0.5 mg): 124 h
- AUC(0-inf) ([1]; 1 mg): 22600 ng·h/mL
- CL/F ([1]; 1 mg): 0.738 mL/min
- Cmax ([1]; 1 mg): 108 ng/mL
- Tmax ([1]; 1 mg): 24 h
- Vd/F ([1]; 1 mg): 6.76 L
- AUC(0-inf) ([1]; 2.5 mg): 53200 ng·h/mL
- CL/F ([1]; 2.5 mg): 0.783 mL/min
- Cmax ([1]; 2.5 mg): 231 ng/mL
- Tmax ([1]; 2.5 mg): 24 h
- Vd/F ([1]; 2.5 mg): 8.15 L
- AUC(0-inf) ([1]; 5 mg): 90500 ng·h/mL
- CL/F ([1]; 5 mg): 0.922 mL/min
- Cmax ([1]; 5 mg): 397 ng/mL
- Tmax ([1]; 5 mg): 24 h
- Vd/F ([1]; 5 mg): 9.8 L
- AUC(0-inf) ([1]; 8 mg): 169000 ng·h/mL
- CL/F ([1]; 8 mg): 0.787 mL/min
- Cmax ([1]; 8 mg): 874 ng/mL
- Tmax ([1]; 8 mg): 48 h
- Vd/F ([1]; 8 mg): 7.55 L
- half-life ([1]; mean half-life): ~120 h
- average accumulation following four weekly doses [2]: 1.58
- mean steady-state volume of distribution [2]: 9.5 L
- Abdominal distension (patients with T2DM; 0.5 mg, N=9): 0 (0.0) n (%)
- Abdominal pain (patients with T2DM; 0.5 mg, N=9): 0 (0.0) n (%)
- Acute pancreatitis (patients with T2DM; 0.5 mg, N=9): 0 (0.0) n (%)
- Decreased appetite (patients with T2DM; 0.5 mg, N=9): 2 (22.2) n (%)
- Dermatitis allergic (patients with T2DM; 0.5 mg, N=9): 0 (0.0) n (%)
- Diarrhoea (patients with T2DM; 0.5 mg, N=9): 1 (11.1) n (%)
- Dyspepsia (patients with T2DM; 0.5 mg, N=9): 0 (0.0) n (%)
- Eructation (patients with T2DM; 0.5 mg, N=9): 0 (0.0) n (%)
- Gastrooesophageal reflux disease (patients with T2DM; 0.5 mg, N=9): 0 (0.0) n (%)
- Headache (patients with T2DM; 0.5 mg, N=9): 1 (11.1) n (%)
- Hepatic enzyme increased (patients with T2DM; 0.5 mg, N=9): 0 (0.0) n (%)
- Injection site reaction (patients with T2DM; 0.5 mg, N=9): 0 (0.0) n (%)
- Nausea (patients with T2DM; 0.5 mg, N=9): 1 (11.1) n (%)
- Pancreatic enzyme increased (patients with T2DM; 0.5 mg, N=9): 0 (0.0) n (%)
- Serious adverse events (patients with T2DM; 0.5 mg, N=9): 0 (0.0) n (%)
- Severe hypoglycaemia (patients with T2DM; 0.5 mg, N=9): 0 (0.0) n (%)
- Study discontinuation due to adverse events (patients with T2DM; 0.5 mg, N=9): 0 (0.0) n (%)
- TEAE Mild, events (patients with T2DM; 0.5 mg, N=9): 15 events
- TEAE Moderate, events (patients with T2DM; 0.5 mg, N=9): 0 events
- TEAE Severe, events (patients with T2DM; 0.5 mg, N=9): 0 events
- Total hypoglycaemia (≤70 mg/dL) (patients with T2DM; 0.5 mg, N=9): 0 (0.0) n (%)
- Vomiting (patients with T2DM; 0.5 mg, N=9): 1 (11.1) n (%)
- Weight decrease (TEAE) (patients with T2DM; 0.5 mg, N=9): 0 (0.0) n (%)
- Abdominal distension (patients with T2DM; 5 mg, N=9): 1 (11.1) n (%)
- Abdominal pain (patients with T2DM; 5 mg, N=9): 0 (0.0) n (%)
- Acute pancreatitis (patients with T2DM; 5 mg, N=9): 0 (0.0) n (%)
- Decreased appetite (patients with T2DM; 5 mg, N=9): 6 (66.7) n (%)
- Dermatitis allergic (patients with T2DM; 5 mg, N=9): 0 (0.0) n (%)
- Diarrhoea (patients with T2DM; 5 mg, N=9): 1 (11.1) n (%)
- Dyspepsia (patients with T2DM; 5 mg, N=9): 0 (0.0) n (%)
- Eructation (patients with T2DM; 5 mg, N=9): 0 (0.0) n (%)
- Gastrooesophageal reflux disease (patients with T2DM; 5 mg, N=9): 1 (11.1) n (%)
- Headache (patients with T2DM; 5 mg, N=9): 0 (0.0) n (%)
- Hepatic enzyme increased (patients with T2DM; 5 mg, N=9): 0 (0.0) n (%)
- Injection site reaction (patients with T2DM; 5 mg, N=9): 0 (0.0) n (%)
- Nausea (patients with T2DM; 5 mg, N=9): 1 (11.1) n (%)
- Pancreatic enzyme increased (patients with T2DM; 5 mg, N=9): 0 (0.0) n (%)
- Serious adverse events (patients with T2DM; 5 mg, N=9): 0 (0.0) n (%)
- Severe hypoglycaemia (patients with T2DM; 5 mg, N=9): 0 (0.0) n (%)
- Study discontinuation due to adverse events (patients with T2DM; 5 mg, N=9): 3 (33.3) n (%)
- TEAE Mild, events (patients with T2DM; 5 mg, N=9): 17 events
- TEAE Moderate, events (patients with T2DM; 5 mg, N=9): 0 events
- TEAE Severe, events (patients with T2DM; 5 mg, N=9): 0 events
- Total hypoglycaemia (≤70 mg/dL) (patients with T2DM; 5 mg, N=9): 0 (0.0) n (%)
- Vomiting (patients with T2DM; 5 mg, N=9): 0 (0.0) n (%)
- Weight decrease (TEAE) (patients with T2DM; 5 mg, N=9): 0 (0.0) n (%)
- Abdominal distension (patients with T2DM; 5/5/10/10 mg, N=12): 2 (16.7) n (%)
- Abdominal pain (patients with T2DM; 5/5/10/10 mg, N=12): 0 (0.0) n (%)
- Acute pancreatitis (patients with T2DM; 5/5/10/10 mg, N=12): 0 (0.0) n (%)
- Decreased appetite (patients with T2DM; 5/5/10/10 mg, N=12): 5 (41.7) n (%)
- Dermatitis allergic (patients with T2DM; 5/5/10/10 mg, N=12): 0 (0.0) n (%)
- Diarrhoea (patients with T2DM; 5/5/10/10 mg, N=12): 3 (25.0) n (%)
- Dyspepsia (patients with T2DM; 5/5/10/10 mg, N=12): 3 (25.0) n (%)
- Eructation (patients with T2DM; 5/5/10/10 mg, N=12): 1 (8.3) n (%)
- Gastrooesophageal reflux disease (patients with T2DM; 5/5/10/10 mg, N=12): 1 (8.3) n (%)
- Headache (patients with T2DM; 5/5/10/10 mg, N=12): 0 (0.0) n (%)
- Hepatic enzyme increased (patients with T2DM; 5/5/10/10 mg, N=12): 1 (8.3) n (%)
- Injection site reaction (patients with T2DM; 5/5/10/10 mg, N=12): 0 (0.0) n (%)
- Nausea (patients with T2DM; 5/5/10/10 mg, N=12): 1 (8.3) n (%)
- Pancreatic enzyme increased (patients with T2DM; 5/5/10/10 mg, N=12): 0 (0.0) n (%)
- Serious adverse events (patients with T2DM; 5/5/10/10 mg, N=12): 0 (0.0) n (%)
- Severe hypoglycaemia (patients with T2DM; 5/5/10/10 mg, N=12): 0 (0.0) n (%)
- Study discontinuation due to adverse events (patients with T2DM; 5/5/10/10 mg, N=12): 0 (0.0) n (%)
- TEAE Mild, events (patients with T2DM; 5/5/10/10 mg, N=12): 54 events
- TEAE Moderate, events (patients with T2DM; 5/5/10/10 mg, N=12): 1 events
- TEAE Severe, events (patients with T2DM; 5/5/10/10 mg, N=12): 0 events
- Total hypoglycaemia (≤70 mg/dL) (patients with T2DM; 5/5/10/10 mg, N=12): 2 (16.7) n (%)
- Vomiting (patients with T2DM; 5/5/10/10 mg, N=12): 1 (8.3) n (%)
- Weight decrease (TEAE) (patients with T2DM; 5/5/10/10 mg, N=12): 2 (16.7) n (%)
- Abdominal distension (patients with T2DM; 5/5/10/15 mg, N=12): 7 (58.3) n (%)
- Abdominal pain (patients with T2DM; 5/5/10/15 mg, N=12): 2 (16.7) n (%)
- Acute pancreatitis (patients with T2DM; 5/5/10/15 mg, N=12): 0 (0.0) n (%)
- Decreased appetite (patients with T2DM; 5/5/10/15 mg, N=12): 11 (91.7) n (%)
- Dermatitis allergic (patients with T2DM; 5/5/10/15 mg, N=12): 2 (16.7) n (%)
- Diarrhoea (patients with T2DM; 5/5/10/15 mg, N=12): 5 (41.7) n (%)
- Dyspepsia (patients with T2DM; 5/5/10/15 mg, N=12): 0 (0.0) n (%)
- Eructation (patients with T2DM; 5/5/10/15 mg, N=12): 4 (33.3) n (%)
- Gastrooesophageal reflux disease (patients with T2DM; 5/5/10/15 mg, N=12): 5 (41.7) n (%)
- Headache (patients with T2DM; 5/5/10/15 mg, N=12): 2 (16.7) n (%)
- Hepatic enzyme increased (patients with T2DM; 5/5/10/15 mg, N=12): 1 (8.3) n (%)
- Injection site reaction (patients with T2DM; 5/5/10/15 mg, N=12): 0 (0.0) n (%)
- Nausea (patients with T2DM; 5/5/10/15 mg, N=12): 6 (50.0) n (%)
- Pancreatic enzyme increased (patients with T2DM; 5/5/10/15 mg, N=12): 1 (8.3) n (%)
- Serious adverse events (patients with T2DM; 5/5/10/15 mg, N=12): 0 (0.0) n (%)
- Severe hypoglycaemia (patients with T2DM; 5/5/10/15 mg, N=12): 0 (0.0) n (%)
- Study discontinuation due to adverse events (patients with T2DM; 5/5/10/15 mg, N=12): 0 (0.0) n (%)
- TEAE Mild, events (patients with T2DM; 5/5/10/15 mg, N=12): 87 events
- TEAE Moderate, events (patients with T2DM; 5/5/10/15 mg, N=12): 9 events
- TEAE Severe, events (patients with T2DM; 5/5/10/15 mg, N=12): 0 events
- Total hypoglycaemia (≤70 mg/dL) (patients with T2DM; 5/5/10/15 mg, N=12): 1 (8.3) n (%)
- Vomiting (patients with T2DM; 5/5/10/15 mg, N=12): 9 (75.0) n (%)
- Weight decrease (TEAE) (patients with T2DM; 5/5/10/15 mg, N=12): 2 (16.7) n (%)
- Any TEAE (patients with T2DM; 0.5 mg QW x4 SC, N=9): 5 (55.6) n (%)
- Any TEAE (patients with T2DM; 5 mg QW x4 SC, N=9): 7 (77.8) n (%)
- Any TEAE (patients with T2DM; 5/5/10/10 mg QW SC, N=12): 10 (83.3) n (%)
- Any TEAE (patients with T2DM; 5/5/10/15 mg QW SC, N=12): 11 (91.7) n (%)
- lipase and amylase, mean values compared to baseline [3]: Increases from baseline in mean values of lipase and amylase within the normal range
- subjects who developed treatment-emergent or treatment-boosted ADAs [4]: Four
- drug-related QT prolongation [5]: no signal of drug-related QT prolongation
